Holding throughout (experiment): ≥ marks a high value that may be exact or a test limit, other limits are often not marked, values filed in µg/mL are converted to µM
For assay [1], the system named is Malassezia sympodialis ATCC 42132.
Assay [2] deals with Candida albicans CCARM 14020.
Assay [3] relates to Candida albicans CCARM 14022.
Assay [4] has as its system Candida albicans SC5314.
Assay [5] concerns Escherichia coli DC2.
The test system of assay [6] is Aeromonas salmonicida 99-1.
Assay [7] has as its system Escherichia coli CGSC 4908.
Assay [8] relates to Salmonella enterica serovar typhimurium MS7953s.
In assay [9] the test system is Pseudomonas aeruginosa K799.
In assay [10] the test system is Aeromonas salmonicida 97-4.
For assay [11], the system named is Staphylococcus epidermidis C621.
The subject of assay [12] is Candida albicans C627.
Assay [13] deals with Salmonella enterica subsp. enterica serovar Typhimurium ATCC 14028s.
Assay [14] relates to Staphylococcus aureus C623.
For assay [15], the system named is Pseudomonas aeruginosa Z61.
The subject of assay [16] is Escherichia coli UB1005.
The test system of assay [17] is Pseudomonas aeruginosa H744.
For assay [18], the system named is Pseudomonas aeruginosa H374.
The test system of assay [19] is Pseudomonas aeruginosa ATCC 27853.
The test system of assay [20] is Burkholderia cepacia ATCC 25416.
The test system of assay [21] is Pseudomonas aeruginosa H547.
Assay [22] has as its system Stenotrophomonas maltophilia.
For assay [23], the system named is Ralstonia pickettii.
For assay [24], the system named is Salmonella enterica serovar Typhimurium.
Assay [25] relates to Pseudomonas aeruginosa M76.
In assay [26] the test system is Pseudomonas aeruginosa M917.
The subject of assay [27] is Pseudomonas aeruginosa M1251.
Assay [28] deals with Achromobacter xylosoxidans.
Assay [29] deals with Pseudomonas aeruginosa M1426.
Assay [30] concerns Candida albicans.
For assay [31], the system named is Pseudomonas aeruginosa PAO1.
The test system of assay [32] is Staphylococcus aureus.
In assay [33] the test system is Pseudomonas aeruginosa.
For assay [34], the system named is Pseudomonas fluorescens.
Assay [35] has as its system Pseudomonas aeruginosa R70.
For assay [36], the system named is Escherichia coli KCCM 11569.
Assay [37] deals with Bacillus subtilis KCCM 11495.
For assay [38], the system named is Enterococcus faecium CCARM 5028.
Assay [39] relates to Enterococcus faecium CCARM 5029.

≈ marks a conversion by molar mass, not a printed value. Where “and” joins values, the source holds several entries; their conditions need not be identical. Identical values can stand only once.

For the molecule `C[C@H](NC(=O)[C@H](Cc1cnc[nH]1)NC(=O)[C@H](CO)NC(=O)[C@@H](N)CC(=O)O)C(=O)N[C@@H](CCCCN)C(=O)N[C@@H](CCCN=C(N)N)C(=O)N[C@@H](Cc1cnc[nH]1)C(=O)N[C@@H](Cc1cnc[nH]1)C(=O)NCC(=O)N[C@@H](Cc1ccc(O)cc1)C(=O)N[C@@H](CCCCN)C(=O)N[C@@H](CCCN=C(N)N)C(=O)N[C@@H](CCCCN)C(=O)N[C@@H](Cc1ccccc1)C(=O)N[C@@H](Cc1cnc[nH]1)C(=O)N[C@@H](CCC(=O)O)C(=O)N[C@@H](CCCCN)C(=O)N[C@@H](Cc1cnc[nH]1)C(=O)N[C@@H](Cc1cnc[nH]1)C(=O)N[C@@H](CO)C(=O)N[C@@H](Cc1cnc[nH]1)C(=O)N[C@@H](CCCN=C(N)N)C(=O)NCC(=O)N[C@@H](Cc1ccc(O)cc1)C(N)=O` [DSHAKRHHGYKRKFHEKHHSHRGY], the MIC (in general, the least concentration at which growth counts as inhibited) in [1] was 5.01 µM (≈ 15.2 µg/mL); in assay [2], 3.73 µM and 10.5 µM; in assay [3] it was 3.73 µM and 10.5 µM; in [4], 3.73 µM and 10.5 µM.
For `CC[C@H](C)[C@H](NC(=O)[C@H](C)NC(=O)CNC(=O)[C@H](CCCCN)NC(=O)[C@@H](NC(=O)[C@H](CC(C)C)NC(=O)[C@H](C)NC(=O)CNC(=O)[C@H](CC(C)C)NC(=O)[C@@H](N)Cc1ccccc1)[C@@H](C)CC)C(=O)N[C@@H](Cc1cnc[nH]1)C(=O)NCC(=O)NCC(=O)N[C@@H](CCCNC(=N)N)C(=O)N[C@@H](Cc1ccccc1)C(=O)N[C@H](C(=O)N[C@@H](Cc1cnc[nH]1)C(=O)NCC(=O)N[C@@H](CCSC)C(=O)N[C@H](C(=O)N[C@@H](CCC(N)=O)C(=O)N[C@@H](CC(N)=O)C(=O)N[C@@H](Cc1cnc[nH]1)C(=O)N[C@@H](Cc1cnc[nH]1)C(C)=O)[C@@H](C)CC)[C@@H](C)CC` [FLGALIKGAIHGGRFIHGMIQNHH], the MIC in assay [5], in assay [6], in assay [7], in assay [8], in assay [9] and in assay [10] was 24.4 µM (≈ 64 µg/mL) throughout. Moreover, the minimal inhibitory concentration (MIC) in [11] was found to be 12.2 µM (≈ 32 µg/mL); in assay [12] it was 24.4 µM (≈ 64 µg/mL); in [13], 24.4 µM (≈ 64 µg/mL); in assay [14], 12.2 µM (≈ 32 µg/mL); in assay [15] it was 12.2 µM (≈ 32 µg/mL); in assay [16], 24.4 µM (≈ 64 µg/mL).
`CC[C@H](C)[C@H](NC(=O)[C@H](CC(C)C)NC(=O)[C@H](C)NC(=O)[C@@H]1CCCN1C(=O)[C@H](CC(C)C)NC(=O)CNC(=O)[C@@H](NC(=O)[C@@H](NC(=O)[C@H](CC(C)C)NC(=O)[C@@H](NC(=O)[C@H](CCCCN)NC(=O)[C@H](CCCCN)NC(=O)[C@H](C)NC(=O)[C@H](C)NC(=O)[C@H](CO)NC(=O)[C@@H](NC(=O)[C@H](CC(C)C)NC(=O)[C@H](CCCCN)NC(=O)[C@H](CCCCN)NC(=O)[C@@H](NC(=O)[C@H](Cc1ccccc1)NC(=O)[C@H](CO)NC(=O)[C@H](CCCCN)NC(=O)[C@H](Cc1c[nH]c2ccccc12)NC(=O)[C@@H](N)CCCCN)[C@@H](C)CC)[C@@H](C)O)C(C)C)[C@@H](C)O)[C@@H](C)O)C(=O)N[C@@H](CO)C(=O)O` [KWKSFIKKLTSAAKKVLTTGLPALIS]: the minimal inhibitory concentration (MIC) was found to be 1.41 µM (≈ 4 µg/mL) in [17]; 1.77 µM (≈ 5 µg/mL) in assay [9]; 1.41 µM (≈ 4 µg/mL) in [18]; 1.41 µM (≈ 4 µg/mL) in assay [13]; 4 µM (≈ 11.3 µg/mL) in [19]; 1.06 µM (≈ 3 µg/mL) in [15]. In addition, the figures for the MIC in assay [20], in assay [21] and in [16] were 22.6 µM (≈ 64 µg/mL), 2.83 µM (≈ 8 µg/mL) and 0.707 µM (≈ 2 µg/mL), respectively.
Consider `CC(C)C[C@H](NC(=O)[C@H](CC(C)C)NC(=O)[C@H](CCCCN)NC(=O)[C@H](C)NC(=O)[C@H](CC(C)C)NC(=O)[C@H](CCCCN)NC(=O)[C@H](CCCCN)NC(=O)[C@H](CC(C)C)NC(=O)[C@H](C)NC(=O)[C@H](CCCCN)NC(=O)[C@H](CCCCN)NC(=O)[C@H](Cc1ccc(O)cc1)NC(=O)[C@@H](N)CCCCN)C(N)=O` [KYKKALKKLAKLL], for which the minimum inhibitory concentration (MIC) stood at 1.29 µM (≈ 2 µg/mL) in assay [22]; 2.59 µM (≈ 4 µg/mL) in assay [23]; 2.59 µM (≈ 4 µg/mL) in [24]; 2.59 µM (≈ 4 µg/mL) in assay [25]; 10.4 µM (≈ 16 µg/mL) in assay [26]; 1.29 µM (≈ 2 µg/mL) in assay [27]. Moreover, the MIC in assay [28] is 5.18 µM (≈ 8 µg/mL); in [29], 10.4 µM (≈ 16 µg/mL); in assay [30] it was 5.18 µM (≈ 8 µg/mL); in assay [31] it was 2.59 µM (≈ 4 µg/mL); in assay [32] it was 10.4 µM (≈ 16 µg/mL); in assay [33], 5.18 µM (≈ 8 µg/mL). Also, the MIC was 5.18 µM (≈ 8 µg/mL) in assay [34], 1.29 µM (≈ 2 µg/mL) in assay [35] and 2.59 µM (≈ 4 µg/mL) in [16].
With `CC(C)C[C@H](NC(=O)CNC(=O)[C@H](CCCCN)NC(=O)[C@H](CCCCN)NC(=O)[C@H](CC(C)C)NC(=O)[C@H](CC(C)C)NC(=O)[C@H](C)NC(=O)[C@H](CC(N)=O)NC(=O)[C@H](CC(C)C)NC(=O)[C@@H](N)Cc1c[nH]c2ccccc12)C(=O)N[C@@H](CC(N)=O)C(=O)N[C@@H](CS)C(=O)N[C@@H](C)C(=O)N[C@@H](CCCCN)C(=O)NCC(=O)N[C@H](C(=O)N[C@@H](CC(C)C)C(=O)N[C@@H](C)C(N)=O)C(C)C` [WLNALLKKGLNCAKGVLA], the MIC in [36] is 1.48 µM (≈ 2.83 µg/mL); in [37], 2.96 µM (≈ 5.65 µg/mL); in [38] it was 0.74 µM and 1.48 µM; in [39], 0.74 µM and 1.48 µM.

For the origin of these results see DBAASP.
